Data on two compounds can be found in ChEMBL document CHEMBL3826873, “Efficient transmembrane anion transport mediated by a bis(imidazolyl)-functionalized bis(choloyl) conjugate” (Bioorg Med Chem Lett, 2016).

Data set [1] can be described thus: Anionophoric activity across egg yolk phosphatidylcholine-based liposomal membrane vesicles (unknown origin) assessed as efflux of chloride anions after 300 seconds in presence of sodium nitrate in external solution by electrode technique. The settings on record: artificial membrane, 5 min. Type of data set: ADME.
Data set [2] is described as follows: Anionophoric activity across egg yolk phosphatidylcholine-based liposomal membrane vesicles (unknown origin) assessed as relative chloride efflux measured as ratio of intrinsic rate constant and dissociation constant of self-association process after 300 seconds in presence of sodium nitrate in external solution by electrode technique. The class given is ADME. As to conditions: artificial membrane, 5 min.

The nature of data set [3]: Anionophoric activity across egg yolk phosphatidylcholine-based liposomal membrane vesicles (unknown origin) assessed as induction of pH discharge at 3 mol% after 20 mins in presence of Br- by fluorescence based pyranine entrap assay. As to conditions: artificial membrane.
The nature of data set [4]: Anionophoric activity across egg yolk phosphatidylcholine-based liposomal membrane vesicles (unknown origin) assessed as efflux of chloride anions at 3 mol% after 300 seconds in presence of Cs+ by electrode technique. Type of data set: ADME. As to conditions: artificial membrane, 5 min.
The nature of data set [5]: Anionophoric activity across egg yolk phosphatidylcholine-based liposomal membrane vesicles (unknown origin) assessed as induction of pH discharge at 3 mol% after 20 mins in presence of Cl- by fluorescence based pyranine entrap assay. The settings on record: artificial membrane.
Data set [6] can be described thus: Anionophoric activity across egg yolk phosphatidylcholine-based liposomal membrane vesicles (unknown origin) assessed as efflux of chloride anions at 3 mol% after 300 seconds in presence of Rb+ by electrode technique. Type of data set: ADME. As to conditions: artificial membrane, 5 min.
Data set [7] in a line: Anionophoric activity across egg yolk phosphatidylcholine-based liposomal membrane vesicles (unknown origin) assessed as efflux of chloride anions at 3 mol% after 300 seconds in presence of Li+ by electrode technique. The class given is ADME. As to conditions: artificial membrane, 5 min.
Data set [8] can be described thus: Anionophoric activity across egg yolk phosphatidylcholine-based liposomal membrane vesicles (unknown origin) assessed as efflux of chloride anions at 5 mol% after 300 seconds in presence of sodium sulfate by electrode technique. Type of data set: ADME. The settings on record: artificial membrane, 5 min.
A short description of data set [9]: Anionophoric activity across egg yolk phosphatidylcholine-based liposomal membrane vesicles (unknown origin) assessed as efflux of chloride anions at 3 mol% after 300 seconds in presence of Na+ by electrode technique. Type of data set: ADME. The settings on record: artificial membrane, 5 min.
A short description of data set [10]: Anionophoric activity across egg yolk phosphatidylcholine-based liposomal membrane vesicles (unknown origin) assessed as induction of pH discharge at 3 mol% after 20 mins in presence of I- by fluorescence based pyranine entrap assay. As to conditions: artificial membrane.
A short description of data set [11]: Anionophoric activity across 70% POPC/30% cholesterol-based liposomal membrane vesicles (unknown origin) assessed as induction of pH discharge at 3 mol% after 20 mins by fluorescence based pyranine entrap assay.
Data set [12] in a line: Anionophoric activity across egg yolk phosphatidylcholine-based liposomal membrane vesicles (unknown origin) assessed as induction of pH discharge at 3 mol% after 20 mins in presence of NO3- by fluorescence based pyranine entrap assay. The settings on record: artificial membrane.
A short description of data set [13]: Anionophoric activity across egg yolk phosphatidylcholine-based liposomal membrane vesicles (unknown origin) assessed as efflux of chloride anions at 3 mol% after 300 seconds in presence of K+ by electrode technique. The settings on record: artificial membrane, 5 min. The class given is ADME.

Each structure is given as a SMILES string. Calls of active or inactive are those of the source. No cut-off for these calls is given here.

For the compound `C[C@H](CCC(=O)NCc1ccc(CNC(=O)CC[C@@H](C)[C@H]2CC[C@H]3[C@@H]4[C@H](O)C[C@@H]5C[C@H](O)CC[C@]5(C)[C@H]4C[C@H](O)[C@]23C)cc1)[C@H]1CC[C@H]2[C@@H]3[C@H](O)C[C@@H]4C[C@H](O)CC[C@]4(C)[C@H]3C[C@H](O)[C@]12C`, the Activity result in data set [1] is “Not Active”.

Turning to `C[C@H](CCC(=O)NC(Cc1cnc[nH]1)C(=O)NCc1ccc(CNC(=O)C(Cc2cnc[nH]2)NC(=O)CC[C@@H](C)[C@@H]2CC[C@@H]3[C@@H]4[C@@H](C[C@@H](O)[C@]32C)[C@]2(C)CC[C@H](O)C[C@@H]2C[C@@H]4O)cc1)[C@H]1CC[C@H]2[C@@H]3[C@H](O)C[C@@H]4C[C@H](O)CC[C@]4(C)[C@H]3C[C@H](O)[C@]12C` (some centres undefined), the Activity entry in data set [1] is “Dose-dependent effect”; in data set [3], “Active”; in data set [4] it was “Active”; in [5], “Active”; in data set [6], “Active”; in data set [7], “Active”. For the same compound, the outcome in data set [8], in data set [9], in data set [10], in [12] and in data set [13] was Active. Also, in data set [2], the Ratio is 1.45 ×10⁻² /s. Further, in data set [11], the result was Active.
